From PubChem BioAssay AID248 (DTP/NCI, 2004)
Inconclusive results and toxic doses are left out. No stated cut-off is given here; in the data, active means T/C of 150% or more; inactive means T/C below 125%.

Tested on: L1210 leukemia ip in BDF1 mice, survival T/C
Assay: NCI In Vivo Anticancer Drug Screen. Data for tumor model L1210 Leukemia (intraperitoneal) in B6D2F1 (BDF1) mice
Conditions: endpoint: mean survival time, higher = longer survival
Summary of the method: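 Each compound was tested against a transplantable tumor grown in mice. The endpoint was survival, with treated animals benchmarked against vehicle controls as a simple ratio.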

[1] = dose: 200.0 mg/kg/injection, schedule: Q04DX003 (ip), vehicle: saline with Tween-80
[2] = dose: 100.0 mg/kg/injection, schedule: Q01DX005 (ip), vehicle: saline
[3] = dose: 200.0 mg/kg/injection, schedule: Q01DX005 (ip), vehicle: saline

Measured: T/C

CC(=O)C(C(=O)NCc1ccccc1)C(c1cccc([N+](=O)[O-])c1)C(C(C)=O)C(=O)NCc1ccccc1 (stereo not drawn)
inactive: dose: 25.6 mg/kg/injection, schedule: Q04DX002 (ip), vehicle: saline with Tween-80 95 % of control | dose: 64.0 mg/kg/injection, schedule: Q04DX002 (ip), vehicle: saline with Tween-80 95 % of control | dose: 160.0 mg/kg/injection, schedule: Q04DX002 (ip), vehicle: saline with Tween-80 95 % of control | [1] 87 % of control | dose: 400.0 mg/kg/injection, schedule: Q04DX002 (ip), vehicle: saline with Tween-80 95 % of control | dose: 400.0 mg/kg/injection, schedule: Q04DX003 (ip), vehicle: saline with Tween-80 87 % of control

CCCCCCCCCCCCCCC(F)C(=O)OC (stereo not drawn)
inactive: dose: 100.0 mg/kg/injection, schedule: Q01DX009 (sc), vehicle: olive oil, sesame oil, peanut oil 94 % of control | dose: 100.0 mg/kg/injection, schedule: Q04DX003 (sc), vehicle: olive oil, sesame oil, peanut oil 102 % of control | dose: 200.0 mg/kg/injection, schedule: Q04DX003 (sc), vehicle: olive oil, sesame oil, peanut oil 113 % of control | dose: 400.0 mg/kg/injection, schedule: Q04DX003 (sc), vehicle: olive oil, sesame oil, peanut oil 109 % of control

O=N[O-].[Co].[N-]=C=S.[NH2-].[NH2-].[NH2-].[NH2-]
inactive: dose: 6.25 mg/kg/injection, schedule: Q01DX009 (ip), vehicle: saline 106 % of control | dose: 12.5 mg/kg/injection, schedule: Q01DX009 (ip), vehicle: saline 114 % of control | dose: 12.5 mg/kg/injection, schedule: Q04DX003 (ip), vehicle: saline with Tween-80 96 % of control | dose: 13.2 mg/kg/injection, schedule: Q01DX009 (ip), vehicle: saline 104 % of control | dose: 16.0 mg/kg/injection, schedule: Q01DX009 (ip), vehicle: saline 104 % of control | dose: 20.0 mg/kg/injection, schedule: Q01DX009 (ip), vehicle: saline 113 % of control | dose: 25.0 mg/kg/injection, schedule: Q01DX009 (ip), vehicle: saline 104 % of control | dose: 25.0 mg/kg/injection, schedule: Q04DX003 (ip), vehicle: saline with Tween-80 96 % of control | dose: 30.0 mg/kg/injection, schedule: Q01DX009 (ip), vehicle: saline 113 % of control | dose: 35.0 mg/kg/injection, schedule: Q01DX009 (ip), vehicle: saline 104 % of control | dose: 50.0 mg/kg/injection, schedule: Q01DX009 (ip), vehicle: saline 116 % of control | dose: 50.0 mg/kg/injection, schedule: Q04DX003 (ip), vehicle: saline with Tween-80 88 % of control | dose: 100.0 mg/kg/injection, schedule: Q04DX003 (ip), vehicle: saline with Tween-80 105 % of control | [1] 90 % of control

CCc1c(CNc2ccc(C(=O)NC(CCC(=O)O)C(=O)O)cc2)ccc2nc(N)nc(N)c12 (stereo not drawn)
inactive: dose: 0.12 mg/kg/injection, schedule: Q01DX003 (ip), vehicle: saline 89 % of control | dose: 4.0 mg/kg/injection, schedule: Q01DX009 (ip), vehicle: saline 88 % of control | dose: 2.5 micrograms/kg/injection, schedule: Q01DX009 (ip), vehicle: saline 101 % of control | dose: 5.0 micrograms/kg/injection, schedule: Q01DX009 (ip), vehicle: saline 111 % of control | dose: 10.0 micrograms/kg/injection, schedule: Q01DX009 (ip), vehicle: saline 113 % of control

CCc1cc2c([nH]c3ccccc32)c(C)c1CCN(C)C
inactive: dose: 50.0 mg/kg/injection, schedule: Q01DX001 (ip), vehicle: other 101 % of control | dose: 100.0 mg/kg/injection, schedule: Q01DX001 (ip), vehicle: other 97 % of control | dose: 200.0 mg/kg/injection, schedule: Q01DX001 (ip), vehicle: other 95 % of control

O=c1cnn(C2OC(CO)C(O)C2O)c(=S)[nH]1 (stereo not drawn)
inactive: [2] 113 % of control | dose: 100.0 mg/kg/injection, schedule: Q01DX009 (ip), vehicle: saline 124 % of control | [3] 108 % of control | dose: 200.0 mg/kg/injection, schedule: Q01DX009 (ip), vehicle: saline 123 % of control | dose: 400.0 mg/kg/injection, schedule: Q01DX009 (ip), vehicle: saline 117 % of control

Cc1ccc(S(=O)(=O)F)cc1C(=O)Nc1ccc(OCCCc2c(N)nc(N)nc2N)cc1
inactive: dose: 37.5 mg/kg/injection, schedule: Q01DX001 (ip), vehicle: Klucel (hydroxypropylcellulose) (HPC) 96 % of control | dose: 75.0 mg/kg/injection, schedule: Q01DX001 (ip), vehicle: Klucel (hydroxypropylcellulose) (HPC) 94 % of control | dose: 150.0 mg/kg/injection, schedule: Q01DX001 (ip), vehicle: Klucel (hydroxypropylcellulose) (HPC) 98 % of control

CCCCCCCCCCCn1cnc2c(=S)nc[nH]c21
inactive: dose: 12.5 mg/kg/injection, schedule: Q01DX005 (ip), vehicle: other 103 % of control | dose: 25.0 mg/kg/injection, schedule: Q01DX005 (ip), vehicle: other 97 % of control | dose: 50.0 mg/kg/injection, schedule: Q01DX005 (ip), vehicle: other 98 % of control | dose: 100.0 mg/kg/injection, schedule: Q01DX005 (ip), vehicle: other 98 % of control | dose: 200.0 mg/kg/injection, schedule: Q01DX005 (ip), vehicle: other 97 % of control

O=[As](O)(CC(O)COc1ccc(Cl)cc1Cl)c1ccc(Cl)cc1 (stereo not drawn)
inactive: dose: 6.25 mg/kg/injection, schedule: Q01DX001 (ip), vehicle: saline with Tween-80 105 % of control | dose: 12.5 mg/kg/injection, schedule: Q01DX001 (ip), vehicle: saline with Tween-80 98 % of control | dose: 25.0 mg/kg/injection, schedule: Q01DX001 (ip), vehicle: saline with Tween-80 98 % of control | dose: 100.0 mg/kg/injection, schedule: Q01DX001 (ip), vehicle: saline with Tween-80 91 % of control

COc1c2c(c(OC)c3ccccc13)C(=O)c1ccccc1C2=O
inactive: dose: 50.0 mg/kg/injection, schedule: Q01DX005 (ip), vehicle: saline 94 % of control | [2] 91 % of control | [3] 91 % of control

C[C@H]1C[C@@H]2[C@H]([C@@H](O)C[C@@]3(C)[C@H]2CC[C@]3(O)C(=O)CO)[C@@]2(C)C=CC(=O)C=C12
inactive: dose: 6.25 mg/kg/injection, schedule: Q01DX009 (ip), vehicle: Klucel (hydroxypropylcellulose) (HPC) 104 % of control | dose: 12.5 mg/kg/injection, schedule: Q01DX009 (ip), vehicle: Klucel (hydroxypropylcellulose) (HPC) 104 % of control | dose: 12.5 mg/kg/injection, schedule: Q01DX Z (sc), vehicle: water 107 % of control | dose: 25.0 mg/kg/injection, schedule: Q01DX009 (ip), vehicle: Klucel (hydroxypropylcellulose) (HPC) 102 % of control | dose: 25.0 mg/kg/injection, schedule: Q01DX Z (sc), vehicle: water 108 % of control | dose: 50.0 mg/kg/injection, schedule: Q01DX009 (ip), vehicle: Klucel (hydroxypropylcellulose) (HPC) 98 % of control | dose: 50.0 mg/kg/injection, schedule: Q01DX Z (sc), vehicle: water 107 % of control | dose: 100.0 mg/kg/injection, schedule: Q01DX009 (ip), vehicle: Klucel (hydroxypropylcellulose) (HPC) 107 % of control | dose: 100.0 mg/kg/injection, schedule: Q01DX Z (sc), vehicle: water 110 % of control | dose: 200.0 mg/kg/injection, schedule: Q01DX009 (ip), vehicle: Klucel (hydroxypropylcellulose) (HPC) 104 % of control | dose: 200.0 mg/kg/injection, schedule: Q01DX Z (sc), vehicle: water 115 % of control
